Measurements published in ChEMBL document CHEMBL5325501, “Discovery of BWA-522, a First-in-Class and Orally Bioavailable PROTAC Degrader of the Androgen Receptor Targeting N-Terminal Domain for the Treatment of Prostate Cancer” (J Med Chem, 2023).
Calls of active or inactive are those of the source. The calls are words filed in the database; no cut-off is given here.

Key:
[1] = Metabolic stability in human liver microsomes assessed as parent compound remaining at 2 uM preincubated for 10 mins followed by compound addition and measured after 60 mins by LC-MS/MS analysis; type: ADME, Microsome; conditions: read-out: Stability
[2] = system: VCaP; test: Induction of apoptosis in human VCaP cells assessed as caspase-3 cleavage at 5 to 10 uM incubated for 48 hrs by Western blot analysis; type: functional, cell-based; conditions: dose 5-10 µM
[3] = system: VCaP; test: Downregulation of PSA protein level in human VCaP cells incubated for 48 hrs by Western blot analysis; type: functional, cell-based; conditions: dose 1-10 µM
[4] = Stability in human plasma assessed as parent compound remaining measured after 60 mins by LC-MS/MS analysis; type: ADME, cell-free; conditions: read-out: Stability
[5] = system: DU-145; test: Antiproliferative activity against AR-independent human DU-145 cells assessed as reduction in cell viability at 10 uM incubated for 6 days by CCK-8 assay; type: functional, cell-based; conditions: time 6.0 day
[6] = Toxicity in ICR mouse assessed as lung damage at 20 to 60 mg/kg, po administered daily for 14 days; type: organism-based; conditions: in vivo, 336 h, dose 20-60 mg/kg, time 14 day
[7] = Toxicity in ICR mouse assessed as testicle damage at 20 to 60 mg/kg, po administered daily for 14 days; type: organism-based; conditions: in vivo, 336 h, dose 20-60 mg/kg, time 14 day
[8] = Half-life in beagle dog at 5 mg/kg, po measured by LC-MS/MS analysis; type: ADME, organism-based, Canis lupus familiaris; conditions: in vivo
[9] = system: LNCaP; test: Antitumor activity against human LNCaP cells xenografted in NOD SCID mouse assessed as tumor growth inhibition at 20 mg/kg, po administered daily for 4 weeks relative to control; type: functional; conditions: 672 h, read-out: TGI
[10] = Downregulation of PSA protein level in human VCaP cells at 10 uM incubated for 48 hrs by Western blot analysis relative to control; type: functional
[11] = biological target: Voltage-gated inwardly rectifying potassium channel KCNH2 (Homo sapiens, UniProt Q12809); test: Inhibition of hERG in HEK293 cells by whole-cell manual patch clamp technique; type: toxicity, cell-based
[12] = system: CWR22R; test: Antiproliferative activity against AR-dependent human 22Rv1 cells assessed as reduction in cell viability at 3 to 10 uM incubated for 6 days by CCK-8 assay; type: functional, cell-based; conditions: dose 3-10 µM, time 6.0 day
[13] = Cmax in ICR mouse at 10 mg/kg, po measured by LC-MS/MS analysis; type: ADME, organism-based; parameters: dose 10 mg/kg, route po; conditions: in vivo
[14] = system: LNCaP; test: Antitumor activity against human LNCaP cells xenografted in NOD SCID mouse assessed as reduction in tumor weight at 20 to 60 mg/kg, po administered daily for 4 weeks; type: functional, organism-based; conditions: dose 20-60 mg/kg
[15] = system: VCaP; test: Antiproliferative activity against human VCaP cells assessed as reduction in cell viability incubated for 6 days by CCK-8 assay; type: functional, cell-based; conditions: 144 h
[16] = AUC(0 to t) in ICR mouse at 10 mg/kg, po measured by LC-MS/MS analysis; type: ADME, organism-based; parameters: dose 10 mg/kg, route po; conditions: in vivo
[17] = Stability in human plasma assessed as parent compound remaining measured immediately by LC-MS/MS analysis; type: ADME, cell-free; conditions: read-out: Stability
[18] = Stability in human plasma assessed as parent compound remaining measured after 15 mins by LC-MS/MS analysis; type: ADME, cell-free; conditions: read-out: Stability
[19] = Oral bioavailability in ICR mouse at 10 mg/kg measured by LC-MS/MS analysis; type: ADME, organism-based; conditions: in vivo
[20] = Stability in mouse plasma assessed as parent compound remaining measured after 60 mins by LC-MS/MS analysis; type: ADME, cell-free; conditions: read-out: Stability
[21] = Metabolic stability in mouse liver microsomes assessed as parent compound remaining at 2 uM preincubated for 10 mins in the presence of NADPH followed by compound addition and measured after 60 mins by LC-MS/MS analysis; type: ADME, Microsome; conditions: read-out: Stability
[22] = system: LNCaP; test: Inhibition of colony formation in human LNCaP cells incubated for 2 weeks by crystal violet staining based analysis; type: functional, cell-based; conditions: dose 1-10 µM
[23] = Cmax in ICR mouse at 2 mg/kg, iv measured by LC-MS/MS analysis; type: ADME, organism-based; parameters: dose 2 mg/kg, route iv; conditions: in vivo
[24] = system: LNCaP; test: Antiproliferative activity against human LNCaP cells assessed as reduction in cell viability incubated for 6 days by CCK-8 assay; type: functional, cell-based; conditions: 144 h
[25] = Tmax in beagle dog at 1 mg/kg, iv measured by LC-MS/MS analysis; type: ADME, organism-based, Canis lupus familiaris; conditions: in vivo
[26] = Stability in mouse plasma assessed as parent compound remaining measured immediately by LC-MS/MS analysis; type: ADME, cell-free; conditions: read-out: Stability
[27] = system: LNCaP; test: Induction of apoptosis in human LNCaP cells assessed as caspase-3 cleavage at 5 to 10 uM incubated for 48 hrs by Western blot analysis; type: functional, cell-based; conditions: dose 5-10 µM
[28] = system: VCaP; test: Antiproliferative activity against AR-dependent human VCaP cells assessed as reduction in cell viability at 3 to 10 uM incubated for 6 days by CCK-8 assay; type: functional, cell-based; conditions: dose 3-10 µM, time 6.0 day
[29] = Half-life in beagle dog at 1 mg/kg, iv measured by LC-MS/MS analysis; type: ADME, organism-based, Canis lupus familiaris; conditions: in vivo
[30] = Stability in human plasma assessed as parent compound remaining measured after 45 mins by LC-MS/MS analysis; type: ADME, cell-free; conditions: read-out: Stability
[31] = system: VCaP; test: Downregulation of TMPRSS2 protein level in human VCaP cells incubated for 48 hrs by Western blot analysis; type: functional, cell-based; conditions: dose 1-10 µM
[32] = Toxicity in NOD SCID mouse xenografted with human LNCaP cells assessed as body weight loss at 20 to 60 mg/kg, po administered daily for 4 weeks; type: organism-based; conditions: in vivo, 672 h, dose 20-60 mg/kg
[33] = Metabolic stability in human liver microsomes assessed as intrinsic clearance at 2 uM preincubated for 10 mins in the presence of NADPH followed by compound addition and measured per mg protein after 60 mins by LC-MS/MS analysis; type: ADME, Microsome; conditions: read-out: CLH
[34] = Downregulation of TMPRSS2 protein level in human VCaP cells at 10 uM incubated for 48 hrs by Western blot analysis relative to control; type: functional
[35] = AUC(0 to t) in beagle dog at 1 mg/kg, iv measured by LC-MS/MS analysis; type: ADME, organism-based, Canis lupus familiaris; parameters: dose 1 mg/kg, route iv; conditions: in vivo

Sequence of Voltage-gated inwardly rectifying potassium channel KCNH2 (Q12809 whole entry): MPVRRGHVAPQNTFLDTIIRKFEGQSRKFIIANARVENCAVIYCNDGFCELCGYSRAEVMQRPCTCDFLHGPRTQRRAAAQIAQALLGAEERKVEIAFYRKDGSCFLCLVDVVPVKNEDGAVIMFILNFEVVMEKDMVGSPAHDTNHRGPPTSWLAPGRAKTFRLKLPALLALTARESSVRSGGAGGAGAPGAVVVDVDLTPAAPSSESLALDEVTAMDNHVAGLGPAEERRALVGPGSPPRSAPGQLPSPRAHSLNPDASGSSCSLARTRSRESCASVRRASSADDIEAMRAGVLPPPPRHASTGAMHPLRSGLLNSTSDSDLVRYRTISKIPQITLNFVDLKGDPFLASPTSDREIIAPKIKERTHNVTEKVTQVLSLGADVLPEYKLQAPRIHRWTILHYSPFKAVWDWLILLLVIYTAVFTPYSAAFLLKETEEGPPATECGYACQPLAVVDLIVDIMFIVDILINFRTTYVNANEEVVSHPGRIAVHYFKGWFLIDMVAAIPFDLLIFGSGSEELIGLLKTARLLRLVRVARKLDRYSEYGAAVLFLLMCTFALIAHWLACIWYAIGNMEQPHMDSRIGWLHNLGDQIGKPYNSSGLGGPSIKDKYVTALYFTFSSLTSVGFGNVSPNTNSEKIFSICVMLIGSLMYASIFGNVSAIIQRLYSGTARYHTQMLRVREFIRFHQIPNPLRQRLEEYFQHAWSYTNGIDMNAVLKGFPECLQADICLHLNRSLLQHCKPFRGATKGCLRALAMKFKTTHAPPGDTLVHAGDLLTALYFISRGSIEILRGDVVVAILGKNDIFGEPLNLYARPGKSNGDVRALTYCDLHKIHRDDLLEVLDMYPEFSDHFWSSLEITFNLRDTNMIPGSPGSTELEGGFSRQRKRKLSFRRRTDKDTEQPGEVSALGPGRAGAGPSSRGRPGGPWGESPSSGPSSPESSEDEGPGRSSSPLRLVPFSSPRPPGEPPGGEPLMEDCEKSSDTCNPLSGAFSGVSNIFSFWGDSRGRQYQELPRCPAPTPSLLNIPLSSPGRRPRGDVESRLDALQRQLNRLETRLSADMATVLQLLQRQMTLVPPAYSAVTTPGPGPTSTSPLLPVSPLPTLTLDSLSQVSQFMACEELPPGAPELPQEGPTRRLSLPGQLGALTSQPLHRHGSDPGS

Question: Which remaining at 1 h, 2 µM [1] does the source give for `CC(C)(c1ccc(OCC2CCN(CC3CCN(c4ccc5c(c4)C(=O)N(C4CCC(=O)NC4=O)C5=O)CC3)CC2)cc1)c1ccc(OC[C@H](O)CCl)cc1` (stereo not given in full) here?
Answer: The remaining at 1 h, 2 µM was 94%.

Question: What about the Activity [2] of the same compound?
Answer: Its Activity is “Active”.

Question: What about the Activity [3] of the same compound?
Answer: Its Activity is “Dose-Dependent Effect”.

Question: And the remaining at 1 h [4]?
Answer: Its remaining at 1 h is 91.9%.

Question: What about the Activity [5] of the same compound?
Answer: Its Activity is “inactive”.

Question: What about the Activity [6] of the same compound?
Answer: Its Activity is “Non-Toxic”.

Question: What about the Activity [7] of the same compound?
Answer: The Activity was “Non-Toxic”.

Question: What about the half-life [8] of the same compound?
Answer: The half-life was 31.2 h.

Question: What about the inhibition in vivo at 20 mg/kg [9] of the same compound?
Answer: The inhibition in vivo at 20 mg/kg was 26%.

Question: And the Activity [10]?
Answer: The Activity was greater than 80%.

Question: And the IC50 [11]?
Answer: The IC50 was greater than 10 µM.

Question: What about the Activity [12] of the same compound?
Answer: The Activity was “Active”.

Question: What about the Cmax [13] of the same compound?
Answer: Its Cmax is 376 ng/mL.

Question: What about the Activity [14] of the same compound?
Answer: Its Activity is “Active”.

Question: What about the IC50 [15] of the same compound?
Answer: Its IC50 is 5.59 µM.

Question: What about the AUC(0-t) [16] of the same compound?
Answer: Its AUC(0-t) is 5950 ng·h/mL.

Question: And the remaining at 0 min [17]?
Answer: The remaining at 0 min was 100%.

Question: What about the remaining at 0.25 h [18] of the same compound?
Answer: The remaining at 0.25 h was 92.2%.

Question: What about the bioavailability [19] of the same compound?
Answer: Its bioavailability is 40.5%.

Question: And the remaining at 1 h [20]?
Answer: The remaining at 1 h was 90.8%.

Question: What about the remaining at 1 h, 2 µM [21] of the same compound?
Answer: The remaining at 1 h, 2 µM was 78.2%.

Question: What about the inhibition [22] of the same compound?
Answer: The inhibition was “Dose-Dependent Effect”.

Question: And the Cmax [23]?
Answer: Its Cmax is 782 ng/mL.

Question: What about the IC50 [24] of the same compound?
Answer: The IC50 was 1.07 µM.

Question: And the Tmax [25]?
Answer: The Tmax was 6 min.

Question: And the remaining at 0 min [26]?
Answer: Its remaining at 0 min is 100%.

Question: And the Activity [27]?
Answer: Its Activity is “Active”.

Question: And the Activity [28]?
Answer: Its Activity is “Active”.

Question: And the half-life [29]?
Answer: Its half-life is 9.9 h.

Question: And the remaining at 0.75 h [30]?
Answer: Its remaining at 0.75 h is 93.9%.

Question: And the Activity [31]?
Answer: The Activity was “Dose-Dependent Effect”.

Question: What about the Activity [32] of the same compound?
Answer: Its Activity is “Non-Toxic”.

Question: What about the microsomal CLint at 2 µM [33] of the same compound?
Answer: Its microsomal CLint at 2 µM is 7.4 µL/min/mg.

Question: And the Activity [34]?
Answer: Its Activity is roughly 40%.

Question: What about the AUCt [35] of the same compound?
Answer: Its AUCt is 919 ng·h/mL.
